Measurements taken from PubChem BioAssay AID256 (DTP/NCI, 2004).
Several values for one entry are separate records, joined by “and”; a condition that tells them apart may be missing. Identical values can stand only once. Inconclusive results and toxic doses are left out. The calls were made as follows: active = survival T/C of 150% or more; inactive = T/C below 125% in these data.

System: CD2F1 mice, L1210 leukemia ip, survival T/C
Assay: NCI In Vivo Anticancer Drug Screen. Data for tumor model L1210 Leukemia (intraperitoneal) in CD2F1 (CDF1) mice
Conditions: higher = longer survival
Outline: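 Antitumor effect is scored in animals hosting a serially transplanted tumor. Values compare compound-dosed animals against vehicle-only controls as a simple quotient.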

[1] = endpoint: mean survival time, dose: 100.0 mg/kg/injection, schedule: Q04DX003 (ip), vehicle: other
[2] = endpoint: mean survival time, dose: 200.0 mg/kg/injection, schedule: Q04DX003 (ip), vehicle: other
[3] = endpoint: mean survival time, dose: 400.0 mg/kg/injection, schedule: Q04DX003 (ip), vehicle: other
[4] = endpoint: mean survival time, dose: 100.0 mg/kg/injection, schedule: Q01DX009 (ip), vehicle: saline with Tween-80
[5] = endpoint: mean survival time, dose: 200.0 mg/kg/injection, schedule: Q01DX009 (ip), vehicle: saline with Tween-80
[6] = endpoint: mean survival time, dose: 400.0 mg/kg/injection, schedule: Q01DX009 (ip), vehicle: saline with Tween-80
[7] = endpoint: mean survival time, dose: 100.0 mg/kg/injection, schedule: Q04DX003 (ip), vehicle: saline with Tween-80
[8] = endpoint: mean survival time, dose: 200.0 mg/kg/injection, schedule: Q04DX003 (ip), vehicle: saline with Tween-80
[9] = endpoint: mean survival time, dose: 400.0 mg/kg/injection, schedule: Q04DX003 (ip), vehicle: saline with Tween-80
[10] = endpoint: mean survival time, dose: 100.0 mg/kg/injection, schedule: Q04DX003 (ip), vehicle: Klucel (hydroxypropylcellulose) (HPC)
[11] = endpoint: mean survival time, dose: 200.0 mg/kg/injection, schedule: Q04DX003 (ip), vehicle: Klucel (hydroxypropylcellulose) (HPC)
[12] = endpoint: mean survival time, dose: 400.0 mg/kg/injection, schedule: Q04DX003 (ip), vehicle: Klucel (hydroxypropylcellulose) (HPC)
[13] = endpoint: mean survival time, dose: 50.0 mg/kg/injection, schedule: Q01DX009 (ip), vehicle: saline with Tween-80

Measured: T/C

CCCCn1ccnc1C
inactive: endpoint: mean survival time, dose: 6.25 mg/kg/injection, schedule: Q01DX009 (ip), vehicle: saline 102 % of control | endpoint: mean survival time, dose: 6.25 mg/kg/injection, schedule: Q04DX003 (ip), vehicle: saline 94 % of control | endpoint: mean survival time, dose: 12.5 mg/kg/injection, schedule: Q01DX009 (ip), vehicle: saline 103 % of control | endpoint: mean survival time, dose: 12.5 mg/kg/injection, schedule: Q04DX003 (ip), vehicle: saline 94 % of control | endpoint: mean survival time, dose: 25.0 mg/kg/injection, schedule: Q01DX009 (ip), vehicle: saline 103 % of control | endpoint: mean survival time, dose: 25.0 mg/kg/injection, schedule: Q04DX003 (ip), vehicle: saline 94 % of control

Cc1ccc(S(=O)(=O)OC2CCCCCCCCCCC2=O)cc1 (configuration not stated)
inactive: endpoint: mean survival time, dose: 50.0 mg/kg/injection, schedule: Q04DX003 (ip), vehicle: other 97 % of control | [1] 93 % of control and 95 % of control | [2] 93 % of control | [3] 95 % of control

Clc1ccc(NC(Nc2ccc(Cl)cc2Cl)C(Cl)(Cl)Cl)c(Cl)c1
inactive: [4] 101 % of control | [5] 106 % of control | [6] 95 % of control

O=C(C=C(C(F)(F)F)C(F)(F)F)c1cccc([N+](=O)[O-])c1
inactive: endpoint: mean survival time, dose: 12.5 mg/kg/injection, schedule: Q04DX003 (ip), vehicle: saline with Tween-80 103 % of control | endpoint: mean survival time, dose: 25.0 mg/kg/injection, schedule: Q04DX003 (ip), vehicle: saline with Tween-80 96 % of control

C=CCC1(C(=O)OCC)CCCCC1=O (configuration not stated)
inactive: [7] 103 % of control | [8] 106 % of control | [9] 110 % of control

ClC(Cl)(Cl)c1nc(C(Cl)(Cl)Cl)nc(C(Cl)(Cl)Cl)n1
inactive: [10] 97 % of control | [11] 87 % of control | [12] 91 % of control

CN(C)c1ccc(N=Nc2ccc3c(c2)C(=O)c2ccccc2C3=O)cc1
inactive: [1] 95 % of control | [2] 93 % of control | [3] 98 % of control

N=c1c2ccn(C3OC(CO)C(O)C3O)c2ncn1N (configuration not stated)
inactive: endpoint: mean survival time, dose: 12.5 mg/kg/injection, schedule: Q01DX005 (ip), vehicle: water 115 % of control | endpoint: mean survival time, dose: 25.0 mg/kg/injection, schedule: Q01DX005 (ip), vehicle: water 110 % of control | endpoint: mean survival time, dose: 50.0 mg/kg/injection, schedule: Q01DX005 (ip), vehicle: water 115 % of control and 116 % of control | endpoint: mean survival time, dose: 100.0 mg/kg/injection, schedule: Q01DX005 (ip), vehicle: water 94 % of control

Nc1nc(S)c(N)c(=S)[nH]1
inactive: endpoint: mean survival time, dose: 75.0 mg/kg/injection, schedule: Q01DX001 (ip), vehicle: carboxymethylcellulose (CMC) 102 % of control

Cc1ccc(S(=O)(=O)SC(F)(F)F)cc1
inactive: endpoint: mean survival time, dose: 5.0 mg/kg/injection, schedule: Q01DX001 (ip), vehicle: saline 106 % of control | endpoint: mean survival time, dose: 10.0 mg/kg/injection, schedule: Q01DX001 (ip), vehicle: saline 104 % of control

NC(=O)Cc1c[nH]c2cc(O)ccc12
inactive: [4] 93 % of control | [7] 97 % of control | [5] 95 % of control | [8] 97 % of control | [6] 100 % of control | [9] 95 % of control

CN=S(=O)(OCCCCCOS(=O)(=NC)c1ccc(C)cc1)c1ccc(C)cc1 (configuration not stated)
inactive: endpoint: mean survival time, dose: 0.39 mg/kg/injection, schedule: Q01DX009 (ip), vehicle: saline with Tween-80 97 % of control | endpoint: mean survival time, dose: 0.78 mg/kg/injection, schedule: Q01DX009 (ip), vehicle: saline with Tween-80 103 % of control | endpoint: mean survival time, dose: 1.56 mg/kg/injection, schedule: Q01DX009 (ip), vehicle: saline with Tween-80 97 % of control | endpoint: mean survival time, dose: 3.12 mg/kg/injection, schedule: Q01DX009 (ip), vehicle: saline with Tween-80 105 % of control | endpoint: mean survival time, dose: 6.25 mg/kg/injection, schedule: Q01DX009 (ip), vehicle: saline with Tween-80 95 % of control and 100 % of control | endpoint: mean survival time, dose: 12.5 mg/kg/injection, schedule: Q01DX009 (ip), vehicle: saline with Tween-80 97 % of control and 101 % of control | endpoint: mean survival time, dose: 25.0 mg/kg/injection, schedule: Q01DX009 (ip), vehicle: saline with Tween-80 103 % of control | [13] 97 % of control | [4] 101 % of control | [5] 100 % of control

CC(=O)c1cccc2cccc([N+](=O)[O-])c12
inactive: [4] 101 % of control | [7] 102 % of control | [5] 102 % of control | [8] 102 % of control | [6] 102 % of control | [9] 100 % of control

C[S+]1C=Cc2ccccc2C1c1ccc(Cl)cc1 (configuration not stated)
inactive: endpoint: mean survival time, dose: 12.5 mg/kg/injection, schedule: Q04DX002 (ip), vehicle: Klucel (hydroxypropylcellulose) (HPC) 103 % of control | endpoint: mean survival time, dose: 25.0 mg/kg/injection, schedule: Q04DX002 (ip), vehicle: Klucel (hydroxypropylcellulose) (HPC) 100 % of control | endpoint: mean survival time, dose: 50.0 mg/kg/injection, schedule: Q04DX002 (ip), vehicle: Klucel (hydroxypropylcellulose) (HPC) 105 % of control

COc1cc(/C=N/NC(=O)c2cccs2)cc(OC)c1OC
inactive: [7] 98 % of control | [8] 93 % of control | [9] 88 % of control

CCCN(CCC)CCCOC(=O)c1ccc([N+](=O)[O-])cc1
inactive: endpoint: mean survival time, dose: 100.0 mg/kg/injection, schedule: Q04DX003 (ip), vehicle: saline 97 % of control | endpoint: mean survival time, dose: 200.0 mg/kg/injection, schedule: Q04DX003 (ip), vehicle: saline 92 % of control | endpoint: mean survival time, dose: 400.0 mg/kg/injection, schedule: Q04DX003 (ip), vehicle: saline 94 % of control

COC(=O)Cc1nc2ccccc2[nH]c1=O
inactive: [13] 103 % of control | [4] 92 % of control | [5] 100 % of control

O=C(O)CCCCc1ccc([N+](=O)[O-])cc1
inactive: endpoint: mean survival time, dose: 100.0 mg/kg/injection, schedule: Q04DX002 (ip), vehicle: other 105 % of control | endpoint: mean survival time, dose: 200.0 mg/kg/injection, schedule: Q04DX002 (ip), vehicle: other 102 % of control | endpoint: mean survival time, dose: 400.0 mg/kg/injection, schedule: Q04DX002 (ip), vehicle: other 97 % of control

C(=N\Nc1nc2ccccc2s1)/c1ccccc1
inactive: [10] 100 % of control | [11] 105 % of control | [12] 92 % of control

CCCC/C=C/C(C)O (configuration not stated)
inactive: [13] 100 % of control | [4] 100 % of control | [7] 98 % of control | [5] 95 % of control | [8] 103 % of control | [9] 103 % of control

Cc1cccc(C2=N/C(=C\c3ccc(N(C)C)cc3)C(=O)O2)c1
inactive: endpoint: mean survival time, dose: 25.0 mg/kg/injection, schedule: Q04DX002 (ip), vehicle: saline with Tween-80 102 % of control | endpoint: mean survival time, dose: 50.0 mg/kg/injection, schedule: Q04DX002 (ip), vehicle: saline with Tween-80 91 % of control | endpoint: mean survival time, dose: 100.0 mg/kg/injection, schedule: Q04DX002 (ip), vehicle: saline with Tween-80 94 % of control | endpoint: mean survival time, dose: 200.0 mg/kg/injection, schedule: Q04DX002 (ip), vehicle: saline with Tween-80 95 % of control | endpoint: mean survival time, dose: 400.0 mg/kg/injection, schedule: Q04DX002 (ip), vehicle: saline with Tween-80 95 % of control

Cc1ccc(C(=O)NC2C(=O)NC(C(C)C)C(=O)N3CCCC3C(=O)N(C)CC(=O)N(C)C(C(C)C)C(=O)OC2C)c2c1Oc1c(c(C(=O)NC3C(=O)NC(C(C)C)C(=O)N4CCCC4C(=O)N(C)CC(=O)N(C)C(C(C)C)C(=O)OC3C)c3nc(-c4ccccc4)c(=O)oc3c1C)N2 (configuration not stated)
inactive: endpoint: median survival time, dose: 0.06 mg/kg/injection, schedule: Q01DX009 (ip), vehicle: water 112 % of control | endpoint: median survival time, dose: 0.12 mg/kg/injection, schedule: Q01DX009 (ip), vehicle: water 122 % of control | endpoint: median survival time, dose: 0.25 mg/kg/injection, schedule: Q01DX009 (ip), vehicle: water 117 % of control

COc1ccc(Cc2cncc3cc(O)c(OC)cc23)cc1O
inactive: endpoint: mean survival time, dose: 100.0 mg/kg/injection, schedule: Q01DX001 (ip), vehicle: saline 102 % of control | endpoint: mean survival time, dose: 200.0 mg/kg/injection, schedule: Q01DX001 (ip), vehicle: saline 96 % of control | endpoint: mean survival time, dose: 400.0 mg/kg/injection, schedule: Q01DX001 (ip), vehicle: saline 96 % of control

CC(C)C1=CC2=C(CC1)C1(C)CCCC(C)(C(=O)O)C1CC2 (configuration not stated)
inactive: [4] 98 % of control | [7] 104 % of control | [5] 96 % of control | [8] 98 % of control | [6] 89 % of control | [9] 93 % of control

CCC(C)(O)C1CC1 (configuration not stated)
inactive: endpoint: mean survival time, dose: 100.0 mg/kg/injection, schedule: Q01DX001 (ip), vehicle: saline with Tween-80 98 % of control | endpoint: mean survival time, dose: 200.0 mg/kg/injection, schedule: Q01DX001 (ip), vehicle: saline with Tween-80 103 % of control | endpoint: mean survival time, dose: 400.0 mg/kg/injection, schedule: Q01DX001 (ip), vehicle: saline with Tween-80 104 % of control
